Literature values, collected in US20230121528A1, “SALMONELLA-BASED DNA VACCINES IN COMBINATION WITH AN ANTIBIOTIC” (VAXIMM AG, priority 2020, published 2023).

Tested on: glioblastoma
Details: glioblastoma patients

## avastin: monoclonal antibody avastin targeting VEGF
  survival benefit: only showed benefits in progression free survival, but not in overall survival
